# Laboratory results as given in patent US12102646B2, “Compositions for the treatment of fibrosis and inflammation” (Viking Therapeutics, Inc., priority 2018, dated 2024).
# Key:
# Type in all cases: in vivo
# DIO-NASH mice = test: DIO-NASH mice, 8 weeks oral once-daily treatment, liver fibrosis read-outs (Example 1); settings: for proportion of animals with reduction in fibrosis score post-treatment: compared with mock treated animals; for liver Picro-Sirius Red (PSR) staining (collagen 1 and 3): terminal liver sections, morphometry, Compound 1 vs mock, Compound 2 vs control- or mock-treated
# Description: DIO-NASH mice were acclimatized for 3 weeks, with pre-treatment liver biopsy samples collected prior to acclimatization. Mice were randomly assigned to one of five dosing groups, with 12 mice per group. Assigned dosages were: Compound 2 (low): 3 mg/kg; Compound 2 (high): 10 mg/kg; Compound 1: 10 mg/kg; and Elafibranor (30 mg/kg). One group was mock treated with vehicle only as a control. Dosage forms were administered orally once per day. After 8 weeks, animals were sacrificed and liver samples were taken. Liver samples were assayed for total liver hydroxyproline, and subjected to immunohistochemical observation for fibrosis stage as well as the extent of ColaI (Collagen Type Ia) staining. […] Since hydroxyproline is a significant component of collagen, and collagen is the most significant source of hydroxyproline in animal tissues, levels of hydroxyproline provide a reliable proxy for the presence of collagen in a sample.
# Terminal liver biopsy samples were also subjected to histochemical staining and immunohistochemical staining. Representative images of liver stained with Picro-Sirius Red (to visualize collagen I and III deposition, red stain) at the end of the treatment period following 8 weeks of treatment with vehicle, low dose Compound 2, high dose Compound 2, Compound 1, or elafibranor are shown in FIG. 2. […] Representative images of liver stained with anti-type I collagen (col1a1) (Southern Biotech, Cat. 131001) at the end of the treatment period following 8 weeks of treatment with vehicle, low dose Compound 2, high dose Compound 2, Compound 1, or elafibranor are shown in FIG. 3. The extent of Col1A1 content was calculated as the total liver Col1A1 staining in terminal liver biopsy samples.
# Fibrosis scores were also calculated based on observation of terminal liver biopsy samples.
# [1] = tested on: diet-induced NASH mouse model; test: diet-induced NASH mouse model, 8 weeks dosing, liver/plasma biochemistry and histology (Example 6); settings: for total liver galectin-3: compared to vehicle, 8 weeks dosing, FIG. 9
# Description: (§1) Compound 2 was evaluated in a diet-induced NASH mouse model (See, e.g., Hansen, H. et al., Drug Discovery Today 22(17):1701-1718 (2017) which is hereby incorporated by reference with respect to its disclosure of diet-induced, genetic, chemical, and other NASH mouse models). […] Animals were biopsied pre-study, and only animals with NASH and fibrosis were selected for study. Selected animals were acclimatized and randomized, with experimental groups of 11-12 animals per cohort receiving oral dosing of compound 2 according to the following schedules: Daily dosing for 8 weeks; or daily dosing for week 0-1 followed by weekly dosing for weeks 2-8. At week 8, animals were sacrificed and tissues analyzed. Plasma enzymes (P-ALT (alanine aminotransferase) and P-AST (aspartate aminotransferase)), total plasma triglycerides, and total plasma cholesterol were measured, and terminal necropsy of each liver was carried out, assaying total liver biochemistry including total liver triglycerides, and total liver cholesterol, as well as histological evaluation of NAFLD activity score (done pre- and post-treatment), fibrosis stage (also done pre- and post-treatment), steatosis, Col1a1 level, and galactin-3 level. Tissue samples were preserved for characterization using RNAseq; RNAseq was used to determine expression levels for genes showing differential expression in compound 2-treated vs. vehicle treated animals and/or genes known to be implicated in fibrosis. Additionally, expression levels for genes known to be implicated in inflammation, such as ANXA2, were determined in compound 2-treated vs. vehicle treated animals.
# [2] = tested on: pro-fibrotic and pro-inflammatory genes (Col1a1, Col3a1, ACTA2, LGALS1, ENPP2, ANXA2); test: RNAseq liver gene expression in diet-induced NASH mouse model (Example 6); parameters: concentration or dose not given beside the values
# Description: as §1
# [3] = tested on: Dunkin-Hartley guinea pigs with pulmonary fibrosis; test: bleomycin-induced pulmonary fibrosis in guinea pigs (Example 2); settings: lungs; relative to levels prior to administration; 6-10 weeks
# Description: Pulmonary fibrosis is induced in healthy male Dunkin-Hartley guinea pigs by administering bleomycin intratracheally. Control subjects are developed by intratracheal administration of saline solution. After the establishment of pulmonary fibrosis in the bleomycin treated animals, test articles comprising any one of Compounds 1-4, or any other compound disclosed herein, are administered to each subject as appropriate for its formulation, daily or as appropriate, for 6-10 weeks. Unilateral lung biopsies are taken prior to the first administration of the test articles and again after sacrifice following the last administration of the test articles. Biopsy samples are analyzed as described in Example I, with the addition of immunohistochemical staining for type III collagen. Lungs from animals treated with the compounds disclosed herein, especially those animals treated with Compound 2, show reduced levels of hydroxyproline, decreased Collagen III staining, and decreased fibrosis score relative to the levels shown prior to the administration of the test articles. Mock treated animals show little or no reduction in fibrosis, hydroxyproline content, or Collagen III content.
# [4] = tested on: nude mice with palmar fascia fibrosis; test: palmar fascia fibrosis in nude mice (second Example 2); settings: relative to levels prior to administration, 6-10 weeks
# Text: Palmar fascia fibrosis is induced in nude mice by introducing fibroblasts from fibrotic cords of Dupuytren's disease patients as described in Stish, L. et al., BMC Musculoskelet. Disord. 16: 138-148 (2015) which is hereby incorporated by reference with respect to its description of the establishment of an animal model system for the study of palmar fascia fibrosis. After the establishment of palmar fascia fibrosis in the fibroblast treated animals, test articles comprising any one of Compounds 1-4, or any other compound disclosed herein, are administered to each subject as appropriate for its formulation, daily or as appropriate, for 6-10 weeks. Unilateral forepaw biopsies are taken prior to the first administration of the test articles and again after sacrifice following the last administration of the test articles. Biopsy samples are analyzed as described in Example I, with the addition of immunohistochemical staining for type III collagen. Palmar fascia from animals treated with the compounds disclosed herein, especially those animals treated with Compound 2, show reduced levels of hydroxyproline, decreased Collagen III staining, and decreased fibrosis score relative to the levels shown prior to the administration of the test articles. Mock treated animals show little or no reduction in fibrosis, hydroxyproline content, or Collagen III content.
# [5] = tested on: Sprague-Dawley Rats or C57BL mice with hypertrophic skin lesions; test: hypertrophic skin lesions in rats or mice (Example 3); settings: injection site skin samples; relative to levels prior to administration; 6-10 weeks
# Text: Hypertrophic skin lesions are induced in Sprague-Dawley Rats by subcutaneous injection of capsaicin as described in Wallengren, J. et al., Skin Pharm. Appl. Skin Physiol. 15(3):154-165(2002), which is hereby incorporated by reference with respect to its description of the induction of hypertrophic skin lesions in rats; or in C57BL or other appropriate strain mice by subcutaneous administration of CCl4 and/or bleomycin, as described in Alonso-Merino et al., Proc. Nat. Acad. Sci. 113(24):E3451-60 (2016), which is incorporated herein for its disclosure of the induction of fibrotic skin lesions in mice. After the establishment of hypertrophic skin lesions in the capsaicin, CCl4 and/or bleomycin treated animals, test articles comprising any one of Compounds 1-4, or any other compound disclosed herein, are administered to each subject animal as appropriate for its formulation, daily or as appropriate, for 6-10 weeks. Skin biopsies from the injection site are taken prior to the first administration of the test articles and again after sacrifice following the last administration of the test articles. Biopsy samples are analyzed as described in Example I, with the addition of immunohistochemical staining for type III collagen. Injection site skin samples from animals treated with the compounds disclosed herein, especially those animals treated with Compound 2, show reduced levels of hydroxyproline, decreased Collagen III staining, and decreased fibrosis score relative to the levels shown prior to the administration of the test articles. Mock treated animals show little or no reduction in fibrosis, hydroxyproline content, or Collagen III content.
# [6] = tested on: Agl-/- mice that manifest GSD-3-like hepatic symptoms; test: GSD-3-like Agl-/- mice (Example 4); settings: liver samples; relative to levels prior to administration; 6-10 weeks
# Description: (§2) Glucose-6-phosphatase-α deficient mice that manifest GSD-3-like hepatic symptoms, including hypercholesterolemia and hyperlipidemia (Agl−/−, see e.g. Liu, K. M. et al., Mol. Genet. Metabol. 111(4):467-76 (2014)) are treated with test articles comprising any one of Compounds 1-4, or any other compound disclosed herein, administered to each subject as appropriate for its formulation, daily or as appropriate, for 6-10 weeks. Liver biopsies are taken prior to the first administration of the test articles and again after sacrifice following the last administration of the test articles. Biopsy samples are analyzed as described in Example I. Liver samples from animals treated with the compounds disclosed herein, especially those animals treated with Compound 2, show reduced levels of hydroxyproline, decreased Collagen I staining, and decreased fibrosis score relative to the levels shown prior to the administration of the test articles. Mock treated animals show little or no reduction in fibrosis, hydroxyproline content, or Collagen I content.
# [7] = tested on: Phosphorylase kinase deficient mice (PhKc-/-); test: GSD-8/9-like PhKc-/- mice (Example 5); settings: liver samples; relative to levels prior to administration; 6-10 weeks
# Description: as §2, with “Phosphorylase kinase” for “Glucose-6-phosphatase-α”, “GSD-8/9-like” for “GSD-3-like”, “(PhKc−/−, see, e.g., Varsanyi,” for “(Agl−/−, see e.g. Liu, K.”, “Biochem.” for “Mol.”, “18(3-4):247-61 (1980)),” for “Metabol. 111(4):467-76 (2014))”
# [8] = relative to pre-treatment samples, 8 weeks, FIG. 7
# [9] = treatment groups relative to untreated controls, week 8, oral
# [10] = post-treatment liver, 8 weeks, FIG. 8
compound,measurement,setting,value
Cc1cc(OCP(=O)(OCOC(=O)C(C)(C)C)OCOC(=O)C(C)(C)C)cc(C)c1Cc1ccc(O)c(Cc2ccccc2)c1 [Compound 1],proportion of animals with reduction in fibrosis score post-treatment,DIO-NASH mice; 8 weeks,higher
same,liver Picro-Sirius Red (PSR) staining (collagen 1 and 3),DIO-NASH mice; 8 weeks oral once per day,lower
same,total liver galectin-3,[1],reduction
same,ACTA2 Change versus Vehicle Control,"[2]; 8-week dosing, fibrosis marker",−30.5%
same,ENPP2 Change versus Vehicle Control,"[2]; 8-week dosing, fibrosis marker",−44.1%
same,LGALS1 Change versus Vehicle Control,"[2]; 8-week dosing, fibrosis marker",−35.1%
Cc1cc(OCP2(=O)OCC[C@@H](c3cccc(Cl)c3)O2)cc(C)c1Cc1ccc(O)c(C(C)C)c1 (stereo partly shown) [Compound 2],animals showing increases in fibrosis score post-treatment,DIO-NASH mice; 8 weeks,No
same,proportion of animals with reduction in fibrosis score post-treatment,DIO-NASH mice; 8 weeks,higher
same,total liver Col1A1 content,"DIO-NASH mice; terminal liver biopsy, anti-type I collagen staining, vs control-treated or mock-treated animals, 8 weeks",lower
same,liver Picro-Sirius Red (PSR) staining (collagen 1 and 3),DIO-NASH mice; 8 weeks oral once per day,lower
same,total liver hydroxyproline levels,"DIO-NASH mice; vs control-treated (elafibranor) or mock-treated animals, 8 weeks oral once per day, Compound 2 3 and 10 mg/kg",lower
same,toxicity,[1]; 8 weeks oral dosing,No significant toxicity
same,total liver galectin-3,[1],reduction
same,reduction in fibrosis (fibrosis score),[1]; [8],50.2%
same,reduction in hydroxyproline,[1]; [8],46.3%
same,reduction in type 1 collagen deposition,[1]; [8],60.2%
same,liver cholesterol,[1]; [9],Significant reductions
same,liver triglycerides,[1]; [9],Significant reductions
same,NAS scores,"[1]; week 8, oral",significant improvements
same,"total lipid content in the liver, reduction","[1]; week 8, oral, FIG. 6",approximately 80%
same,ACTA2 Change versus Vehicle Control,"[2]; 8-week dosing, fibrosis marker",−37.0%
same,Col1a1 Change versus Vehicle Control,"[2]; 8-week dosing, fibrosis marker",−36.3%
same,Col3a1 Change versus Vehicle Control,"[2]; 8-week dosing, fibrosis marker",−27.1%
same,ENPP2 Change versus Vehicle Control,"[2]; 8-week dosing, fibrosis marker",−56.3%
same,LGALS1 Change versus Vehicle Control,"[2]; 8-week dosing, fibrosis marker",−64.7%
same,ANXA2 Change versus Vehicle Control,"[2]; 8-week dosing, inflammatory marker",−40.3%
same,expression of pro-inflammatory gene ANXA2 reduced by,"[2]; post-treatment liver, 8 weeks",40.3%
same,expression of ACTA2 (αSMA) reduced by,[2]; [10],37%
same,expression of Col1a1 reduced by,[2]; [10],36.3%
same,expression of Col3a1 reduced by,[2]; [10],27.1%
same,expression of LGALS1 (Galectin 1) reduced by,[2]; [10],64.7%
same,Collagen III staining,[3],decreased
same,fibrosis score,[3],decreased
same,levels of hydroxyproline,[3],reduced
same,Collagen III staining,[4],decreased
same,fibrosis score,[4],decreased
same,levels of hydroxyproline,[4],reduced
same,Collagen III staining,[5],decreased
same,fibrosis score,[5],decreased
same,levels of hydroxyproline,[5],reduced
same,Collagen I staining,[6],decreased
same,fibrosis score,[6],decreased
same,levels of hydroxyproline,[6],reduced
same,Collagen I staining,[7],decreased
same,fibrosis score,[7],decreased
same,levels of hydroxyproline,[7],reduced
